Biological target: Oxoeicosanoid receptor 1 (Homo sapiens, UniProt Q8TDS5)
Assay: Antagonist activity at OXE receptor in human neutrophils assessed as inhibition of 5-oxo-ETE-induced calcium mobilization incubated for 2 mins followed by 5-oxo-ETE addition measured after 1 min by fluorescence assay
Type: functional

Sequence of Oxoeicosanoid receptor 1 (Q8TDS5 whole entry): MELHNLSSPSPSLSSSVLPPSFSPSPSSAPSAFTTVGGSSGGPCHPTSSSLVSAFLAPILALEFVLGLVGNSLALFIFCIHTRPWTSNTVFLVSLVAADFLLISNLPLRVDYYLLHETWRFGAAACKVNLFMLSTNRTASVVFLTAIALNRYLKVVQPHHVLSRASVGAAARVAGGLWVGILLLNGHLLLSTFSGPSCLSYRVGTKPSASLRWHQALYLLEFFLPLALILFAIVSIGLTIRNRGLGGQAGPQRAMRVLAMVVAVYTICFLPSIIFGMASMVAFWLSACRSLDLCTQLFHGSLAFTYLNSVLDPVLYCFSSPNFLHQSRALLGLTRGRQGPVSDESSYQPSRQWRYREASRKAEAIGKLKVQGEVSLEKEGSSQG

SMILES	IC50 [nM]
CCCCCCc1c(C(=O)CC2(CC(=O)O)CC2)c2cc(Cl)ccc2n1C	580
CCCCCCc1c(C(=O)C(C)(C)CCC(=O)O)c2cc(Cl)ccc2n1C	8150
CCCCCCc1c(C(=O)CC2(CC(=O)O)CCC2)c2cc(Cl)ccc2n1C	720
CCCCCCc1c(C(=O)CC(C)CC(=O)O)c2cc(Cl)ccc2n1C (stereo unspecified)	16 to 20
CCCCCCc1c(C(=O)CCC(C)(C)C(=O)O)c2cc(Cl)ccc2n1C	4060
CCCCCCc1c(C(=O)c2ccc(C(=O)O)cc2)c2cc(Cl)ccc2n1C	1360
CCCCCCc1c(C(=O)COCC(=O)O)c2cc(Cl)ccc2n1C	5500
CCCCCCc1c(C(=O)c2cccc(C(=O)O)c2)c2cc(Cl)ccc2n1C	1120
CCCCCCCCCCCc1c(C(=O)CC(C)CC(=O)O)c2cc(Cl)ccc2n1C (stereo unspecified)	23
CCCCCCc1c(C(=O)C[C@@H](C)CC(=O)O)c2cc(Cl)ccc2n1C	2700
CCCCCCc1c(C(=O)CC(C)(C)CC(=O)O)c2cc(Cl)ccc2n1C	1330

Source: ChEMBL document CHEMBL4043248, “Structure-activity relationship study of β-oxidation resistant indole-based 5-oxo-6,8,11,14-eicosatetraenoic acid (5-oxo-ETE) receptor antagonists” (Bioorg Med Chem Lett, 2017)
